Source: publication PMC8449129, “Single tracer-based protocol for broad-spectrum kinase profiling in live cells with NanoBRET” (STAR Protocols, 2021)

Assays:
Assay in all cases: cell-based
Parameters in all cases: NanoBRET live-cell target engagement; % occupancy from displacement of tracer K10 on NanoLuc-kinase fusions, mean n=3
Conditions in all cases: HEK293, read-out: % inhibition
IRAK4 = IRAK4 (Homo sapiens, UniProt Q9NWZ3)
Experimental: (§1) • 18. Prepare 10× test compounds in OptiMEM • a. Dilute the test compound to 1000× in DMSO (or the test compound solvent). […] Add 10μL per well of 10× test compound or 10μL of the DMSO control to the 96-well plates containing cells with 1× tracer. Mix on orbital shaker for 15 s at 900 rpm. • 20. Incubate the plate at 37°C + 5% CO2 incubator for 2hr. Allow plate to cool to RT for ∼15 min, then proceed to NanoBRET^TM Assay section below. • 21. Immediately before the BRET measurements, prepare 3× Complete NanoBRET^TM Nano-Glo® Substrate in OptiMEM without serum or phenol red. […] Mix gently by inverting 5–10 times in a conical tube. (The final concentration of Extracellular NanoLuc inhibitor in the 3× solution is 60 μM, for a working concentration of 20 μM.) • a. Note: 3× solutions should be used within 1.5 h after preparation. • 22. […] Incubate 2–3 min at RT. Following addition of NanoBRET^TM Nano-Glo® Substrate, measure donor emission (e.g., 450 nm) and acceptor emission (e.g., 610 nm or 630 nm) using a NanoBRET™-compatible luminometer. Fractional occupancy Quantitation • 2. Determine Fractional Occupancy with the following equation; % Occupancy = [1 – (X – Z)/( Y – Z)]∗100 • Where: • X = BRET in the presence of the test compound and tracer, • Y = BRET in the presence of the 100% BRET Control (Tracer + DMSO) • Z = BRET for the Zero BRET Control, e.g., • a. BRET from the NanoLuc Control Vector • b. BRET from Kinase/NanoLuc fusion + saturating dose of control test compound.

LIMK2 = LIMK2 (Homo sapiens, UniProt P53671)
LIMK2, sequence (P53671 whole entry): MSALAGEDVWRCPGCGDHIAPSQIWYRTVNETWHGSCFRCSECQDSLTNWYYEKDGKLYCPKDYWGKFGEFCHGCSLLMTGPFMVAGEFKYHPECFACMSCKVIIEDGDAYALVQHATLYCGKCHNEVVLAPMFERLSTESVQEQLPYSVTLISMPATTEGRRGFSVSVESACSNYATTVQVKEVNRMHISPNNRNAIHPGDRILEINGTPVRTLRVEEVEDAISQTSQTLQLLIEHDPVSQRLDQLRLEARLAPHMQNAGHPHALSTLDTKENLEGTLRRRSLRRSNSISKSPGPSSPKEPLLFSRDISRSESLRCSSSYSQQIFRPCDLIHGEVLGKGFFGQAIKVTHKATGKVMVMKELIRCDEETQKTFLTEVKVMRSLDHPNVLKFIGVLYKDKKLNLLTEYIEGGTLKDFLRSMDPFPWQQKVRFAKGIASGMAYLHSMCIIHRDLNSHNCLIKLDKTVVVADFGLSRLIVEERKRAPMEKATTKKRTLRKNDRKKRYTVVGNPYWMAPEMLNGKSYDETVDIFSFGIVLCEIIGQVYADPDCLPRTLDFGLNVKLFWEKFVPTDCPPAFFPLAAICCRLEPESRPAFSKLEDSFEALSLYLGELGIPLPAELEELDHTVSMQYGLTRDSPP
Experimental: as §1

SRMS = SRMS (Homo sapiens, UniProt Q9H3Y6)
Experimental: as §1

PRKCE = PRKCE (Homo sapiens, UniProt Q02156)
Experimental: as §1

STK32B = STK32B (Homo sapiens, UniProt Q9NY57)
Experimental: as §1

STK4 = STK4 (Homo sapiens, UniProt Q13043)
STK4, sequence (Q13043 whole entry): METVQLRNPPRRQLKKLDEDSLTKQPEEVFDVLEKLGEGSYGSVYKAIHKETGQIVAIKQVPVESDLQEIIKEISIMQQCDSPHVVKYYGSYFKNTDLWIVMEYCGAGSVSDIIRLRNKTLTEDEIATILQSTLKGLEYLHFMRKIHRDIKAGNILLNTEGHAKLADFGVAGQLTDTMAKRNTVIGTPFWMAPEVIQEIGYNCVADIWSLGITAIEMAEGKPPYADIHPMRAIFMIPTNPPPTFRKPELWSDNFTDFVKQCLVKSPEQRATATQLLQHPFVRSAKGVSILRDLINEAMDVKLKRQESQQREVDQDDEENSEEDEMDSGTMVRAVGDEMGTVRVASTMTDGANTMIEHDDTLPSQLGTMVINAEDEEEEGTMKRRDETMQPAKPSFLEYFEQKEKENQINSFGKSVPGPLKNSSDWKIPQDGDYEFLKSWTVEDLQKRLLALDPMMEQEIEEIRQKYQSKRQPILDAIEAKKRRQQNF
Experimental: as §1

SIK3 = SIK3 (Homo sapiens, UniProt Q9Y2K2)
SIK3, sequence (Q9Y2K2 whole entry): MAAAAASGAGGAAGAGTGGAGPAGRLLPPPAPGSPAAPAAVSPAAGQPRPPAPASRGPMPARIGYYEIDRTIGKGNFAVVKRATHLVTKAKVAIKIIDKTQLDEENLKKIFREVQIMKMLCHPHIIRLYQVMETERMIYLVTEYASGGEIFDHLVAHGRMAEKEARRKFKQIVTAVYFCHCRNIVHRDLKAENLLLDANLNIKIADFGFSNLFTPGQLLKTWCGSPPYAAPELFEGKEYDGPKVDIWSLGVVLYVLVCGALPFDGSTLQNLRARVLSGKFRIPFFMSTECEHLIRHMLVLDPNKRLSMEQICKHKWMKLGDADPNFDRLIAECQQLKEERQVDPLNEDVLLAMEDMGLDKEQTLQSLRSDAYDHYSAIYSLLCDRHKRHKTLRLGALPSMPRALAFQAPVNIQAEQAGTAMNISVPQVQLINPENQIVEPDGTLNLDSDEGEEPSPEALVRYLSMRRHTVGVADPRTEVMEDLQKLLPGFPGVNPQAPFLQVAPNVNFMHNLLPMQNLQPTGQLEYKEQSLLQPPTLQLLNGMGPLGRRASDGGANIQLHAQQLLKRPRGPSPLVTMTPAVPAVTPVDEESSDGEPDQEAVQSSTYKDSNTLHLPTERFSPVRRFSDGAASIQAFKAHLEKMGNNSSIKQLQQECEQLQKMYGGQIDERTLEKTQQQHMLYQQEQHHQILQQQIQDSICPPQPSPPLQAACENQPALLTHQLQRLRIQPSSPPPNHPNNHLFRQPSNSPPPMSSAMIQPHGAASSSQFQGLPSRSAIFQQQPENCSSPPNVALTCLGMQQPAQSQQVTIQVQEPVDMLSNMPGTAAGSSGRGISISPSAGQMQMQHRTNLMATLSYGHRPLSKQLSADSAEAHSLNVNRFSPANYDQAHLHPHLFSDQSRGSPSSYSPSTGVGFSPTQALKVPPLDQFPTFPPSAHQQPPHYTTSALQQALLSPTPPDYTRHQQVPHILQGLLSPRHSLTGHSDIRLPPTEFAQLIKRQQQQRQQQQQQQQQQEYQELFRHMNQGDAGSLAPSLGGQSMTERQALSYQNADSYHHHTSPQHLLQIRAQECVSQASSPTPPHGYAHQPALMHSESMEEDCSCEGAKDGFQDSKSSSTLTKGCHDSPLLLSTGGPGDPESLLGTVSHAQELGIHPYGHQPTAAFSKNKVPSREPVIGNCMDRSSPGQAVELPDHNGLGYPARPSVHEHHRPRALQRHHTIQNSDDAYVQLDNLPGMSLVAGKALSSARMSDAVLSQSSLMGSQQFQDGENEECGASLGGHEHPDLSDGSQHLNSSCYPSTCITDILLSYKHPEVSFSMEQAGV
Experimental: as §1

CDKL2 = CDKL2 (Homo sapiens, UniProt Q92772)
CDKL2, sequence (Q92772 whole entry): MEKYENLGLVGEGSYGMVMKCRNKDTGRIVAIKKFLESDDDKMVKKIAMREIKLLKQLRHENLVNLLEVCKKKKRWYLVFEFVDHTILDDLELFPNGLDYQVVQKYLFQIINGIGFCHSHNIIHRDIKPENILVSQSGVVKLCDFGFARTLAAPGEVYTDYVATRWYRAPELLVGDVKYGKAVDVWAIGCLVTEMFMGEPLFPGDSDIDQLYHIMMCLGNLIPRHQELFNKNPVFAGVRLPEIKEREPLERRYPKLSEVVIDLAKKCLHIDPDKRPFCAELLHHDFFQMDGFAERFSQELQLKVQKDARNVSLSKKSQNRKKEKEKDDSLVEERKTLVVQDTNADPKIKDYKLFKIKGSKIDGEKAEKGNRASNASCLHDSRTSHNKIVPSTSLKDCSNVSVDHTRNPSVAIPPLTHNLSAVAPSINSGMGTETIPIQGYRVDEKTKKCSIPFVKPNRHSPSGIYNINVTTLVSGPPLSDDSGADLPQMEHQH
Experimental: as §1

CDK1 = CDK1 (Homo sapiens, UniProt P06493)
Experimental: as §1

LIMK1 = LIMK1 (Homo sapiens, UniProt P53667)
LIMK1, sequence (P53667 whole entry): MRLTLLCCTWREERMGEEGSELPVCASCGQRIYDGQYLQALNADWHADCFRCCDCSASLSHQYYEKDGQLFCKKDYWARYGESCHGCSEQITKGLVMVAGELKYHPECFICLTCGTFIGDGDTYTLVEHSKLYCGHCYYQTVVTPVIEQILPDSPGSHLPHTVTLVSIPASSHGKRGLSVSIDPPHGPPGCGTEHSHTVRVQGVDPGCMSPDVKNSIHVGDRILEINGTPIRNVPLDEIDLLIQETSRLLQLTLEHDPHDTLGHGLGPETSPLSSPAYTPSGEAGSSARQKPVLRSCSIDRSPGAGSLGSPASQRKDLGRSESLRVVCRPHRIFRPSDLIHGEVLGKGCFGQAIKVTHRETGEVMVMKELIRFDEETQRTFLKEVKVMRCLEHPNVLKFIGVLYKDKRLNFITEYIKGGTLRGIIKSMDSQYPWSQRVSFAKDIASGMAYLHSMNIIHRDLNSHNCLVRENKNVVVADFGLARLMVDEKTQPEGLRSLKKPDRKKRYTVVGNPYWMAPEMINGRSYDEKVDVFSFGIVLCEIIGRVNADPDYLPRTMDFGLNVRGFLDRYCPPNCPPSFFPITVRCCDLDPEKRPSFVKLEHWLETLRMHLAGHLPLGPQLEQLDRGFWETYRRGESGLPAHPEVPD
Experimental: as §1

ABL2 = ABL2 (Homo sapiens, UniProt P42684)
Experimental: as §1

ITK = ITK (Homo sapiens, UniProt Q08881)
Experimental: as §1

CDKL5 = CDKL5 (Homo sapiens, UniProt O76039)
Experimental: as §1

STK11 = STK11 (Homo sapiens, UniProt Q15831)
Experimental: as §1

ULK2 = ULK2 (Homo sapiens, UniProt Q8IYT8)
Experimental: as §1

CLK2 = CLK2 (Homo sapiens, UniProt P49760)
CLK2, sequence (P49760 whole entry): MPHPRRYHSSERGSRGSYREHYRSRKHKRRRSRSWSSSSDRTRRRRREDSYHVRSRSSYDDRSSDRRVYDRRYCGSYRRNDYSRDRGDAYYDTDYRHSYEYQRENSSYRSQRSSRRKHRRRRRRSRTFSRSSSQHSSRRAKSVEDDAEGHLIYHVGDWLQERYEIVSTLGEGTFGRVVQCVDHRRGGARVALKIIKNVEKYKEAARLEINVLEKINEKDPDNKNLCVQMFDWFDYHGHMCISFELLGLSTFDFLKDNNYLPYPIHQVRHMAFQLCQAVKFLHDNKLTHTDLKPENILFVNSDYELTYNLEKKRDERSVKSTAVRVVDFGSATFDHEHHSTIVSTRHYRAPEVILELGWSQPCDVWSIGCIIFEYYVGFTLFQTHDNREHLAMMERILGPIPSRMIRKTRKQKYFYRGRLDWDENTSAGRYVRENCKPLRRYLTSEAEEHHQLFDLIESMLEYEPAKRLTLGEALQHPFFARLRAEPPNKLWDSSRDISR
Experimental: as §1

MKNK2 = MKNK2 (Homo sapiens, UniProt Q9HBH9)
MKNK2, sequence (Q9HBH9 whole entry): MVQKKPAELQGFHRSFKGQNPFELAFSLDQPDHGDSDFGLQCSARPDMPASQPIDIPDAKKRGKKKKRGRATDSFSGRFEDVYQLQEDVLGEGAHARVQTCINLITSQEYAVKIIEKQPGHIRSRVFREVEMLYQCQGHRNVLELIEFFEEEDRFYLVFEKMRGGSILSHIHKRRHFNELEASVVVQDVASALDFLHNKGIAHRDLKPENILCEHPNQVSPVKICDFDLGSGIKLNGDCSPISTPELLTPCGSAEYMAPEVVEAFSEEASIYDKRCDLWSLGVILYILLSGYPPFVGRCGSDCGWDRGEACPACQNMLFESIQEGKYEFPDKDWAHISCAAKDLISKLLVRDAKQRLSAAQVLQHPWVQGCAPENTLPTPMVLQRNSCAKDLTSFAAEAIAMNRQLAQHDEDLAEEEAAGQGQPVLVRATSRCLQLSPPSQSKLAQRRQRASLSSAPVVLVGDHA
Experimental: as §1

MAP3K10 = MAP3K10 (Homo sapiens, UniProt Q02779)
Experimental: as §1

IRAK4, sequence (Q9NWZ3 whole entry): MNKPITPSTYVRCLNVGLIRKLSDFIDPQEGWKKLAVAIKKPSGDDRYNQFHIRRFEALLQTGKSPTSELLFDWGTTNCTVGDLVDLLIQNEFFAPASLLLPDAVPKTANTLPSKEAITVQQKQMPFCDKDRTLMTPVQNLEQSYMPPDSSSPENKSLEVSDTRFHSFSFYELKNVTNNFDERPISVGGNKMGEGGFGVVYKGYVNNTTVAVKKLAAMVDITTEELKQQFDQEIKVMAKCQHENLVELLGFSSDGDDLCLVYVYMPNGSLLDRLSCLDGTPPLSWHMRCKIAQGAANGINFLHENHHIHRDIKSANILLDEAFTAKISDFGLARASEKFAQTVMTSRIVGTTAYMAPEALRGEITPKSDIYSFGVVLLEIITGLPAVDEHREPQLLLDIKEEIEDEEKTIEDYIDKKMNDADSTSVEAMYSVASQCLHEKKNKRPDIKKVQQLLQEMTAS

inhibition at 1 µM (IRAK4): 6% | inhibition at 1 µM (LIMK2): 32% | inhibition at 1 µM (SRMS): 0% | inhibition at 1 µM (PRKCE): -6% | inhibition at 1 µM (STK32B): -1% | inhibition at 1 µM (STK4): 11% | inhibition at 1 µM (SIK3): 0% | inhibition at 1 µM (CDKL2): 21% | inhibition at 1 µM (CDK1): 7% | inhibition at 1 µM (LIMK1): 29% | inhibition at 1 µM (ABL2): 43% | inhibition at 1 µM (ITK): -1% | inhibition at 1 µM (CDKL5): 4% | inhibition at 1 µM (STK11): -1% | inhibition at 1 µM (ULK2): -1% | inhibition at 1 µM (CLK2): 1% | inhibition at 1 µM (MKNK2): 1% | inhibition at 1 µM (MAP3K10): -1%
SMILES: C[C@@H](Oc1cc(-c2cnn(C3CCNCC3)c2)cnc1N)c1c(Cl)ccc(F)c1Cl [crizotinib]
